Reference: ChEMBL document CHEMBL1127014, “Synthesis and evaluation of imidazo[1,5-a][1,4]benzodiazepine esters with high affinities and selectivities at "diazepam-insensitive" benzodiazepine receptors” (J Med Chem, 1993)

Experiments:
[1] = molecular target: T1, GABA-A receptor; anion channel (Rattus norvegicus) (UniProt O09028+P15431+P18506+P18508+P19969+P20236+P23574+P23576+P28471+P28473+P30191+P62813+P63079+P63138+Q91ZM7+Q9ES14); assay: GABA shift ratio at Diazepam sensitive fraction of GABA-A benzodiazepine receptor; format: protein-complex assay
[2] = molecular target: GABA-A receptor; anion channel; assay: Binding affinity for Diazepam-Insensitive fraction of GABA-A benzodiazepine receptors; format: protein-complex assay, Rattus norvegicus
[3] = molecular target: GABA-A receptor; anion channel; assay: (§1) Binding affinity for Diazepam-Sensitive fraction of GABA-A benzodiazepine receptors; format: protein-complex assay
[4] = molecular target: T1, GABA-A receptor; anion channel (Rattus norvegicus); assay: Selectivity for Diazepam insensitive compared to sensitive GABA-A benzodiazepine receptor fractions; format: protein-complex assay
[5] = molecular target: GABA-A receptor; anion channel; assay: as §1; format: protein-complex assay, Rattus norvegicus
[6] = molecular target: GABA-A receptor; anion channel; assay: Inhibition of Diazepam-Insensitive fraction of GABA-A benzodiazepine receptors; format: protein-complex assay, Rattus norvegicus
[7] = molecular target: GABA-A receptor; anion channel; assay: Inhibition of Diazepam-Insensitive faction of GABA-A benzodiazepine receptors; format: protein-complex assay, Rattus norvegicus

SMILES	GABA shift [1]	Ki [2]	Ki [3]	Ratio [4]	Ki [5]	IC50 [6]	IC50 [7]
CN1Cc2c(C(=O)OC(C)(C)C)ncn2-c2ccc(N=C=S)cc2C1=O	1.35	2.7 nM	3.7 nM	0.73			
CCOC(=O)c1ncn2c1C1CCCN1C(=O)c1cc(Cl)ccc1-2 (stereo not drawn) [RO-145975]		53 nM	72 nM	0.73			
CCOC(=O)c1ncn2c1CN(C)C(=O)c1cc(Cl)ccc1-2 [Ro-151310]					5.4 nM		
CCOC(=O)c1ncn2c1CN(C)C(=O)c1ccccc1-2 [RO-147437]	98	214 nM		165	1.3 nM		
CN1Cc2c(C(=O)OC(C)(C)C)ncn2-c2ccc(Br)cc2C1=O	1.06	2.8 nM		0.17	16 nM		
CCC(CC)OC(=O)c1ncn2c1CN(C)C(=O)c1cc(Cl)ccc1-2	158	123 nM	26.9 nM	4.6			
CN1Cc2c(C(=O)OC(C)(C)C)ncn2-c2ccsc2C1=O [RO-194603]		2.6 nM		13	0.2 nM		
CN1Cc2c(C(=O)OCCC(C)(C)C)ncn2-c2ccc(Cl)cc2C1=O	201		184 nM			> 1000 nM	
COC(=O)c1ncn2c1CN(C)C(=O)c1sccc1-2		52 nM	0.9 nM	57			
CCCOC(=O)c1ncn2c1CN(C)C(=O)c1sccc1-2		38 nM	1.4 nM	27			
COC(=O)c1ncn2c1CN(C)C(=O)c1ccccc1-2	99				6.3 nM		> 1000 nM
CN1Cc2c(C(=O)OC(C)(C)C)ncn2-c2ccccc2C1=O	105	21.2 nM	1.1 nM	19.2			
CCOC(=O)c1ncn2c1[C@@H]1CCCN1C(=O)c1ccccc1-2		45 nM	0.9 nM	50			
CN1Cc2c(C(=O)OCC3CC3)ncn2-c2ccc(Cl)cc2C1=O	176	39.8 nM		4.1	9.7 nM		
CN1Cc2c(C(=O)OC(C)(C)C)ncn2-c2ccc(Cl)cc2C1=O	116	1.7 nM	4 nM	0.4			
CC(C)OC(=O)c1ncn2c1CN(C)C(=O)c1cc(Cl)ccc1-2	123	8.8 nM	10.5 nM	0.8			
COC(=O)c1ncn2c1CN(C)C(=O)c1cc(Cl)ccc1-2		124 nM					
CN1Cc2c(C(=O)OC(C)(C)C)ncn2-c2ccc(I)cc2C1=O	1.22	1.5 nM	7 nM	0.21			
CN1Cc2c(C(=O)OC(C)(C)C)ncn2-c2ccc(N=[N+]=[N-])cc2C1=O	1.76	0.43 nM	2.1 nM	0.2			
CCCOC(=O)c1ncn2c1CN(C)C(=O)c1cc(Cl)ccc1-2	128	33.3 nM	24.8 nM	1.3			
CN1Cc2c(C(=O)OC(C)(C)C)ncn2-c2ccc([N+](=O)[O-])cc2C1=O	1.46	10.8 nM		0.77	14 nM		
CN1Cc2c(C(=O)OCC(C)(C)C)ncn2-c2ccc(Cl)cc2C1=O	177	300 nM		0.67	499 nM		
CN(C)N=Nc1ccc2c(c1)C(=O)N(C)Cc1c(C(=O)OC(C)(C)C)ncn1-2	1.12				3490 nM	> 1000 nM	
